Reference: patent US8772199B2, “Herbicidal compositions for tolerant or resistant maize crops” (Bayer Intellectual Property GmbH, priority 1998, dated 2014)

What was measured:
Experiment in all cases: Field trial with maize, herbicidal action
Format in all cases: in vivo
[1] = test system: Cassia obtusifolia; conditions: 925 g of a.s./ha; application 3-leaf stage; scoring 21 days after application
Method: (§1) Transgenic maize plants with a resistance to one or more herbicides (A) together with typical weed plants were grown in the open on 2×5 m plots under natural field conditions; alternatively, weed infestation occurred naturally when the maize plants were grown.
(§2) […] The damage to, and the development of, all aerial parts of the plants was recorded. Scoring was done on the basis of a percentage sale (100% action=all plants destroyed; 50% action=50% of the plants and green parts of the plants destroyed; 0% action=no recognizable effect=like control plot. The mean of the score values of in each case 4 plots was calculated.

[2] = test system: Lolium multiflorum; conditions: 2.5 g of a.s./ha; application 2- to 4-leaf stage; scoring 26 days after application
Method: as §1, §2

[3] = test system: Lamium amplexicaule; conditions: 2.5 g of a.s./ha; application 1-leaf stage; scoring 17 days after application
Method: as §1, §2

[4] = test system: Fagopyrum esculentum; conditions: 2.5 g of a.s./ha; application 2- to 4-leaf stage; scoring 26 days after application
Method: as §1, §2

| SMILES | Herbicidal action (%) against Cassia obtusifolia [1] [%] | Herbicidal action (%) against Lolium multiflorum [2] [%] | Herbicidal action (%) against Lamium amplexicaule [3] [%] | Herbicidal action (%) against Fagopyron esculentum [4] [%] |
| --- | --- | --- | --- | --- |
| CCC(CC)Nc1c([N+](=O)[O-])cc(C)c(C)c1[N+](=O)[O-] [(B2.1), N-(1-ethylpropyl)-2,6-dinitro-3,4-xylidine] | 0 |  |  |  |
| COc1nc(C)nc(NC(=O)NS(=O)(=O)c2cc(I)ccc2C(=O)O)n1 [(B2.3), 4-iodo-2-(4-methoxy-6-methyl-1,3,5-triazin-2-ylcarbamoylsulfamoyl)benzoic acid] |  | 84 | 55 | 85 |
